From patent EP4678638A1, “NEW E3 UBIQUITIN LIGASE LIGAND, PROTEIN DEGRADATION AGENT AND USE THEREOF” (priority 2023, dated 2024)

Experiments:
ALK = target: T1, ALK (Homo sapiens, UniProt Q96SW2+Q9HC35+Q9UM73); experiment: Western blot degradation of ALK (H2228 Cell); assay type: cell-based; conditions: Table D5
T1 construct: evaluate the effects of the compounds of the present disclosure on the expression of target proteins in cells; endogenous in cells; host or cells: H2228
Method: Conventional Western blot assay was performed to evaluate the effects of the compounds of the present disclosure on the expression of target proteins in cells.
(1) Cell Seeding and Protein Harvesting: The selected cells were processed according to the cell seeding procedure and protein harvesting procedure in Table III-2. Table III-2 Cell Seeding and Protein Harvesting Procedures
(2) To the collected supernatant, 5X SDS sample loading buffer was added, followed by denaturation at 95°C for 5 minutes. The denatured samples were then separated by SDS-PAGE electrophoresis on a polyacrylamide gel. Proteins were transferred to a nitrocellulose membrane (0.45 µm NC membrane), blocked with blocking buffer at room temperature for 1 hour, and subjected to antibody incubation and development procedures according to the antibody manufacturer's instructions (Cell Signaling Technology).
Half-Maximal Degradation Concentration value (the drug concentration required for degrading proteins by 50%, abbreviated as DC50) reads method: comparing the grayscale values of Western blot bands from drug-treated samples with those from blank DMSO-treated controls, and identifying the drug concentration range at which the grayscale value is half that of the DMSO-treated control bands.
DC50 values can be calculated using ImageJ software to measure grayscale values of Western blot bands from drug-treated samples. The concentration-response curve is fitted to estimate the drug concentration corresponding to half the grayscale value.
Target protein remaining (%) refers to the percentage of target protein remaining in hPBMC cells after treatment with protein degrader compounds.
Calculation method for target protein remaining (%): Use ImageJ software to measure grayscale values of Western blot bands from drug (protein degrader)-treated samples. The grayscale value of drug-treated bands is divided by that of internal control protein bands, and the resulting quotient is normalized to obtain the relative percentage of remaining target protein after protein degrader treatment.
Target protein degradation rate (%) = 100% - target protein remaining (%).

H1975 = experiment: CCK-8 proliferation, NCI-H1975 (H1975); assay type: cell-based, Human; conditions: Homo sapiens, NCI-H1975; Table B6, compounds designed based on the ALK inhibitors; H1975 cells; read-out: Inhibitory activity (IC50, nM) on tumor cell proliferation, H1975
How it was run: (§1)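 CCK-8 viability readout; IC50 from growth-inhibition curve fitting. Cells plated, dosed 24h later with a 10-point series, top 10µM, 5-fold steps. Culture at 37°C, 5% CO2.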

SR = experiment: CCK-8 proliferation, SR; assay type: cell-based, Human; conditions: Homo sapiens; Table B6, compounds designed based on the ALK inhibitors; SR cells; read-out: Inhibitory activity (IC50, nM) on tumor cell proliferation, SR
How it was run: as §1

[1] = target: T2, human Cereblon WT GST-tagged protein (Homo sapiens, UniProt Q96SW2); experiment: CRBN binding, HTRF (CEREBLON BINDING kit); conditions: Table II-2, CRBN binding screening, HTRF; for inhibition at 0.5 µM: read-out: Inhibition rate (%) at 0.5µM; for inhibition at 2 µM: read-out: Inhibition rate (%) at 2 µM
T2 construct: purchased CISBIO 64BDCRBNPEH
T2 sequence (Q96SW2 whole entry): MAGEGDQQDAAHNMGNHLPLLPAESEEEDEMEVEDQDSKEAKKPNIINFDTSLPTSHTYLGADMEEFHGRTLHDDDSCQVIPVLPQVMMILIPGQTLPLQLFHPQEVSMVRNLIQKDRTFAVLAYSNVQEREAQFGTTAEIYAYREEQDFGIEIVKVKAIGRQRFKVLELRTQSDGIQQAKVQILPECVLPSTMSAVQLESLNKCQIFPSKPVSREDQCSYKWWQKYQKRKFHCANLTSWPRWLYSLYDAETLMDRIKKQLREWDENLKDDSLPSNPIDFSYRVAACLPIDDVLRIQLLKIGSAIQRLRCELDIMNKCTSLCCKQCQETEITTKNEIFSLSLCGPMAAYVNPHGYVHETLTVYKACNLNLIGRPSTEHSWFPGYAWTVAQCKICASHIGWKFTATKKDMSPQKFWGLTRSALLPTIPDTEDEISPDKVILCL
How it was run: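 Competitive HTRF: GST-tagged human WT Cereblon mixed with compound, Thalidomide-Re tracer and GST Eu antibody, incubated 3 h at room temperature. Signals read at 620 and 665 nm.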

H2228 = experiment: CCK-8 proliferation, NCI-H2228 (H2228); assay type: cell-based; conditions: Homo sapiens, NCI-H2228; Table B6, compounds designed based on the ALK inhibitors; H2228 cells; read-out: Inhibitory activity (IC50, nM) on tumor cell proliferation, H2228
How it was run: as §1

T1 sequence (Q9HC35+Q9UM73 fused): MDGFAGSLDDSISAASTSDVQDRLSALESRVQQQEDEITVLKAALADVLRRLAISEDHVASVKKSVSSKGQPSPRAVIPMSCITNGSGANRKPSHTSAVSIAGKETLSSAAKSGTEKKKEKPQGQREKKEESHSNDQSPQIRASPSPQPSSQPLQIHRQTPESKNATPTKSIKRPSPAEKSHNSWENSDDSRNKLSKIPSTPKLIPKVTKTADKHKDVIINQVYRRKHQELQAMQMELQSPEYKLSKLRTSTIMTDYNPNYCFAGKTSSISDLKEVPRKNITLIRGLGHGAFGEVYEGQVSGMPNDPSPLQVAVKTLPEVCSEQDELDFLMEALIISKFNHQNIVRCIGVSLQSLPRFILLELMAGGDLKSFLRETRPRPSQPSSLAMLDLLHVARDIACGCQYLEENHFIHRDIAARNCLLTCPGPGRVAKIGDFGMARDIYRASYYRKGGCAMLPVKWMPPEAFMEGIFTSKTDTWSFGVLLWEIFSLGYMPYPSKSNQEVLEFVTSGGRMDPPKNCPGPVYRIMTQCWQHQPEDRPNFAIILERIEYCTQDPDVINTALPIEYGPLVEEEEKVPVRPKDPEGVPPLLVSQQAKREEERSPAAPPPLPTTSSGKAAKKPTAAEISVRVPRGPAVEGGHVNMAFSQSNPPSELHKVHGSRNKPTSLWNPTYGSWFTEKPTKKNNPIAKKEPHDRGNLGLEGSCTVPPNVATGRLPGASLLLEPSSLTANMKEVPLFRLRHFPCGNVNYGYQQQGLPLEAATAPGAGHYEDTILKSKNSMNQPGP
T1 sequence (Q96SW2 whole entry): as the sequence (Q96SW2 whole entry) above
T1 sequence (Q16531 whole entry partner): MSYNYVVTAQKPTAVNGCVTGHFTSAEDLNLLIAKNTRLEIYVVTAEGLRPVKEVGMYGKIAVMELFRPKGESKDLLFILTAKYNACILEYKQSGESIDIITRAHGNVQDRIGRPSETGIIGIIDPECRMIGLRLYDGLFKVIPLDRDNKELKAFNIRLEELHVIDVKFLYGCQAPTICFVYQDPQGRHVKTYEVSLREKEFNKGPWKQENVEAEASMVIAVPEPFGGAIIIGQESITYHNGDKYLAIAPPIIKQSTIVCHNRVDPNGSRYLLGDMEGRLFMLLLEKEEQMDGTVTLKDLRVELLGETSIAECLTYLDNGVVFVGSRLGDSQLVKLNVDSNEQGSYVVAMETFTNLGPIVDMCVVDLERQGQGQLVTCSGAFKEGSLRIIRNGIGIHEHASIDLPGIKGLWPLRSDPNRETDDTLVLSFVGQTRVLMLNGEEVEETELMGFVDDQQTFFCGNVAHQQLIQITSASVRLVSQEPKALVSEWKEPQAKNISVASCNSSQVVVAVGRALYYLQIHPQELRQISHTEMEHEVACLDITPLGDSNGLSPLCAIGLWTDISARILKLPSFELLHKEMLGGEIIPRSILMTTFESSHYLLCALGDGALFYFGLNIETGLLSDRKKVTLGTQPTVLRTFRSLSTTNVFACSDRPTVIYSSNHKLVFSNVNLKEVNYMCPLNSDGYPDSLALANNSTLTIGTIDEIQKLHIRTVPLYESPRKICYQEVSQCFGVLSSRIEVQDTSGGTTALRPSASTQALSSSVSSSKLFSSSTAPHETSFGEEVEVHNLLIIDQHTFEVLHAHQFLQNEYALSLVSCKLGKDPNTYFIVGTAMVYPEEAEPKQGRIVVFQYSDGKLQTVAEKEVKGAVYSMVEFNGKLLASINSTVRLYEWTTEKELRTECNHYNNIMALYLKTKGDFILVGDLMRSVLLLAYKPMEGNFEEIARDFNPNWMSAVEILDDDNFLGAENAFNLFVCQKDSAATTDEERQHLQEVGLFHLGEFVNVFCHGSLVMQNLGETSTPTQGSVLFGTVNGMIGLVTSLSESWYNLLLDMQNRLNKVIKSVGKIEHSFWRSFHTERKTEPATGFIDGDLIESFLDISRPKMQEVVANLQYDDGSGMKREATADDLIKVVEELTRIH

Row | SMILES | Degradation of substrate protein ALK (substrate protein remaining %) (ALK) | further results
1 | CCc1cc2c(cc1N1CCN(Cc3ccnc(N4CCC(=O)NC4=O)c3)CC1)C(C)(C)c1[nH]c3cc(C#N)ccc3c1C2=O [GT-07834, 8-(4-((2-(2,4-dioxotetrahydropyrimidin-1(2H)-yl)pyridin-4-yl)methyl)piperazin-1-yl)-9-ethyl-6,6-dimethyl-11-oxo-6,11-dihydro-5H-benzo[b]carbazole-3-carbonitrile] | A (A is defined as 0% ≤ substrate protein remaining % ≤ 80%) | –
2 | CCc1cc2c(cc1N1CCC(N3CCN(Cc4cc(N5CCC(=O)NC5=O)cnc4F)CC3)CC1)C(C)(C)c1[nH]c3cc(C#N)ccc3c1C2=O [GT-07755, 8-(4-(4-((5-(2,4-dioxotetrahydropyrimidin-1(2H)-yl)-2-fluoropyridin-3-yl)methyl)piperazin-1-yl)piperidin-1-yl)-9-ethyl-6,6-dimethyl-11-oxo-6,11-dihydro-5H-benzo[b]carbazole-3-carbonitrile] | A (A is defined as 0% ≤ substrate protein remaining % ≤ 80%) | –
3 | COc1cc(N2CCN(Cc3ccc(C4CCC(=O)NC4=O)cc3)CC2)ccc1Nc1ncc(Cl)c(Nc2ccccc2P(C)(C)=O)n1 (stereo not drawn) [GT-03781, 3-(4-((4-(4-((5-chloro-4-((2-(dimethylphosphoryl)phenyl)amino)pyrimidin-2-yl)amino)-3-methoxyphenyl)piperazin-1-yl)methyl)phenyl)piperidine-2,6-dione] | A (A is defined as 0% ≤ substrate protein remaining % ≤ 80%) | IC50 (H1975): 500 to 1000 nM; IC50 (SR): 1 to 10 nM; inhibition at 0.5 µM [1]: 40 to 53%; inhibition at 2 µM [1]: 60 to 80%
4 | CCc1cc2c(cc1N1CCN(Cc3ccc(N4CCC(=O)NC4=O)cn3)CC1)C(C)(C)c1[nH]c3cc(C#N)ccc3c1C2=O [GT-07326, 8-(4-((5-(2,4-dioxotetrahydropyrimidin-1(2H)-yl)pyridin-2-yl)methyl)piperazin-1-yl)-9-ethyl-6,6-dimethyl-11-oxo-6,11-dihydro-5H-benzo[b]carbazole-3-carbonitrile] | A (A is defined as 0% ≤ substrate protein remaining % ≤ 80%) | IC50 (H2228): 100 to 500 nM; IC50 (SR): 10 to 50 nM
5 | CCc1cc2c(cc1N1CCN(Cc3cncc(N4CCC(=O)NC4=O)c3)CC1)C(C)(C)c1[nH]c3cc(C#N)ccc3c1C2=O [GT-07835, 8-(4-((5-(2,4-dioxotetrahydropyrimidin-1(2H)-yl)pyridin-3-yl)methyl)piperazin-1-yl)-9-ethyl-6,6-dimethyl-11-oxo-6,11-dihydro-5H-benzo[b]carbazole-3-carbonitrile] | A (A is defined as 0% ≤ substrate protein remaining % ≤ 80%) | –
6 | COc1cc(N2CCC(N(C)Cc3cc(N4CCC(=O)NC4=O)cnc3F)CC2)ccc1Nc1ncc(Cl)c(Nc2ccccc2P(C)(C)=O)n1 [GT-07750, 1-(5-(((1-(4-((5-chloro-4-((2-(dimethylphosphoryl)phenyl)amino)pyrimidin-2-yl)amino)-3-methoxyphenyl)piperidin-4-yl)(methyl)amino)methyl)-6-fluoropyridin-3-yl)dihydropyrimidine-2,4(1H,3H)-dione] | A (A is defined as 0% ≤ substrate protein remaining % ≤ 80%) | –
7 | CCc1cc2c(cc1N1CCN(Cc3cc(C4CCC(=O)NC4=O)cnc3F)CC1)C(C)(C)c1[nH]c3cc(C#N)ccc3c1C2=O (stereo not drawn) [GT-07836, 8-(4-((5-(2,6-dioxopiperidin-3-yl)-2-fluoropyridin-3-yl)methyl)piperazin-1-yl)-9-ethyl-6,6-dimethyl-11-oxo-6,11-dihydro-5H-benzo[b]carbazole-3-carbonitrile] | A (A is defined as 0% ≤ substrate protein remaining % ≤ 80%) | –
8 | CCc1cc2c(cc1N1CCC(N3CCN(Cc4cnc(N5CCC(=O)NC5=O)cn4)CC3)CC1)C(C)(C)c1[nH]c3cc(C#N)ccc3c1C2=O [GT-07756, 8-(4-(4-((5-(2,4-dioxotetrahydropyrimidin-1(2H)-yl)pyrazin-2-yl)methyl)piperazin-1-yl)piperidin-1-yl)-9-ethyl-6,6-dimethyl-11-oxo-6,11-dihydro-5H-benzo[b]carbazole-3-carbonitrile] | A (A is defined as 0% ≤ substrate protein remaining % ≤ 80%) | –
9 | COc1cc(N2CCN(Cc3ccc(C4CCC(=O)NC4=O)c(F)c3)CC2)ccc1Nc1ncc(Cl)c(Nc2ccccc2P(C)(C)=O)n1 (stereo not drawn) [GT-03782, 3-(4-((4-(4-((5-chloro-4-((2-(dimethylphosphoryl)phenyl)amino)pyrimidin-2-yl)amino)-3-methoxyphenyl)piperazin-1-yl)methyl)-2-fluorophenyl)piperidine-2,6-dione] | A (A is defined as 0% ≤ substrate protein remaining % ≤ 80%) | IC50 (SR): 10 to 50 nM; inhibition at 0.5 µM [1]: 40 to 53%; inhibition at 2 µM [1]: 80 to 100%
10 | CCc1cc2c(cc1N1CCC(N3CCN(Cc4ncc(N5CCC(=O)NC5=O)cc4F)CC3)CC1)C(C)(C)c1[nH]c3cc(C#N)ccc3c1C2=O [GT-07924, 8-(4-(4-((5-(2,4-dioxotetrahydropyrimidin-1(2H)-yl)-3-fluoropyridin-2-yl)methyl)piperazin-1-yl)piperidin-1-yl)-9-ethyl-6,6-dimethyl-11-oxo-6,11-dihydro-5H-benzo[b]carbazole-3-carbonitrile] | A (A is defined as 0% ≤ substrate protein remaining % ≤ 80%) | –
11 | Cc1cc(Nc2ncc(Cl)c(Nc3ccccc3S(=O)(=O)C(C)C)n2)c(OC(C)C)cc1C1CCN(Cc2cnc(N3CCC(=O)NC3=O)cn2)CC1 [GT-07758, 1-(5-((4-(4-((5-chloro-4-((2-(isopropylsulfonyl)phenyl)amino)pyrimidin-2-yl)amino)-5-isopropoxy-2-methylphenyl)piperidin-1-yl)methyl)pyrazin-2-yl)dihydropyrimidine-2,4(1H,3H)-dione] | A (A is defined as 0% ≤ substrate protein remaining % ≤ 80%) | –
12 | COc1cc(N2CCN(Cc3cc(N4CCC(=O)NC4=O)cnc3F)CC2)ccc1Nc1ncc(Cl)c(Nc2ccccc2P(C)(C)=O)n1 [GT-07748, 1-(5-((4-(4-((5-chloro-4-((2-(dimethylphosphoryl)phenyl)amino)pyrimidin-2-yl)amino)-3-methoxyphenyl)piperazin-1-yl)methyl)-6-fluoropyridin-3-yl)dihydropyrimidine-2,4(1H,3H)-dione] | A (A is defined as 0% ≤ substrate protein remaining % ≤ 80%) | –
13 | COc1cc(N2CCC(N(C)Cc3cnc(N4CCC(=O)NC4=O)cn3)CC2)ccc1Nc1ncc(Cl)c(Nc2ccccc2P(C)(C)=O)n1 [GT-07751, 1-(5-(((1-(4-((5-chloro-4-((2-(dimethylphosphoryl)phenyl)amino)pyrimidin-2-yl)amino)-3-methoxyphenyl)piperidin-4-yl)(methyl)amino)methyl)pyrazin-2-yl)dihydropyrimidine-2,4(1H,3H)-dione] | A (A is defined as 0% ≤ substrate protein remaining % ≤ 80%) | –
14 | COc1cc(N2CCN(Cc3cnc(N4CCC(=O)NC4=O)cn3)CC2)ccc1Nc1ncc(Cl)c(Nc2ccccc2P(C)(C)=O)n1 [GT-07749, 1-(5-((4-(4-((5-chloro-4-((2-(dimethylphosphoryl)phenyl)amino)pyrimidin-2-yl)amino)-3-methoxyphenyl)piperazin-1-yl)methyl)pyrazin-2-yl)dihydropyrimidine-2,4(1H,3H)-dione] | A (A is defined as 0% ≤ substrate protein remaining % ≤ 80%) | –
15 | CCc1cc2c(cc1N1CCN(Cc3cc(N4CCC(=O)NC4=O)ncc3F)CC1)C(C)(C)c1[nH]c3cc(C#N)ccc3c1C2=O [GT-07833, 8-(4-((2-(2,4-dioxotetrahydropyrimidin-1(2H)-yl)-5-fluoropyridin-4-yl)methyl)piperazin-1-yl)-9-ethyl-6,6-dimethyl-11-oxo-6,11-dihydro-5H-benzo[b]carbazole-3-carbonitrile] | A (A is defined as 0% ≤ substrate protein remaining % ≤ 80%) | –
